The values below come from publication PMC5607081 (2017).

This experiment concerns target DNA; 23-bp duplex DNA oligo (DNA, duplex) GCGAATAAGAGGAAGTGAAACCG/CGGTTTCACTTCCTCTTATTCGC
The experiment in a line: fluorescence polarization titration. To be noted: 0.20 M NaCl; 10 mM TrisHCl, pH 7.5, 25°C, H2O, no osmolyte; apparent.

On to `N=C(N)c1ccc2[nH]c(-c3ccc(-c4nc5cc(C(=N)N)ccc5[nH]4)[se]3)nc2c1`, for which the “−log (Kd, M)” value is on record as 9.90 ± 0.12 −log M.
